Patent publication US20150038513A1, “ASSOCIATION BETWEEN N-HYDROXY-4-BENZAMIDE AND FOLFOX” (LES LABORATOIRES SERVIER, priority 2011, published 2015)

Experiments:
[1] = test system: cultured tumour cells; conditions: cultured tumour cells in vitro; Buggy et al. 2006; cited from earlier work
[2] = test system: colorectal cancer, a pancreatic cancer or a gastric cancer; test: Clinical study of the association with FOLFOX; type: in vivo; conditions: patients previously treated by FOLFOX
Description: A clinical study for testing the association of N-hydroxy-4-{2-[3-(N,N-dimethylamino-methyl)benzofuran-2-ylcarbonylamino]ethoxy}benzamide with FOLFOX is carried out on a maximum of 60 patients. Patients included in the study suffer from a colorectal cancer, a pancreatic cancer or a gastric cancer, and they have been treated by a treatment based on FOLFOX (i.e., alone or in association with other treatments) prior to their inclusion. More precisely, the study consists of 14-day cycles, each of the cycles being performed as follows: N-hydroxy-4-{2-[3-(N,N-dimethylaminomethyl)benzofuran-2-ylcarbonylamino]ethoxy}benzamide (in the form of a hydrochloride salt) is administered for 4 consecutive days whilst oxaliplatin and folinic acid are administered simultaneously on the third day, at the end of infusion of which 5-fluorouracil is administered continuously until the fifth day. […] At the end of a treatment cycle, the toxicity of the regimen associating N-hydroxy-4-{2-[3-(N,N-dimethylaminomethyl)benzofuran-2-ylcarbonylamino]ethoxy}benzamide and FOLFOX is assessed. […] Every four cycles, the efficacy of the treatment is assessed by evaluating the tumour response (CT scan, MRI, etc.). The acceptability profile is also evaluated (especially haematologic and cardiac toxicity).

[3] = test system: histone deacetylase (HDAC); conditions: described in WO2004/092115; cited from earlier work
[4] = test system: xenograft models; conditions: in vivo, Buggy et al. 2006; cited from earlier work

SMILES: CN(C)Cc1c(C(=O)NCCOc2ccc(C(=O)NO)cc2)oc2ccccc12 [N-hydroxy-4-{2-[3-(N,N-dimethylaminomethyl)benzofuran-2-ylcarbonylamino]ethoxy}benzamide]
- apoptosis [1]: induces apoptosis
- cell growth [1]: inhibition of cell growth
- efficacy of the treatment (tumour response) of the association with FOLFOX ([2]; hydrochloride salt p.o., 160-360 mg daily, 4 consecutive days, in association with FOLFOX, 14-day cycles): promising
- reversal of resistance to FOLFOX [2]: reverse the resistance to FOLFOX
- HDAC inhibition [3]: powerful histone deacetylase (HDAC) inhibitor
- tumour growth [4]: inhibits tumour growth
